Ends that are not written are not given here.
Legend:
S. aureus ATCC 29213 [1] = test: MIC, broth dilution; format: cell-based, Staphylococcus aureus; conditions: Table 4; liquid broth
Summary of the method: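 MIC defined as the lowest peptide level giving no growth after overnight standing incubation at 37° C. Bacteria at OD 6×10^−4 in cation-adjusted MH broth met 2-fold serial peptide dilutions; peptide purity 95%.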

S. aureus ATCC 29213 [2] = test: Spot-on-lawn assay; format: cell-based, Staphylococcus aureus; conditions: 50 μg peptide spotted on agar
Protocol: Spot-on-lawn assay. For the initial screen, peptides of ≥70% purity were used. Each peptide was resuspended in sterile water to a concentration of 10 mg/ml. To determine antimicrobial activities a spot-on-lawn assay was performed. M. luteus and S. aureus were used as indicator strains. To prepare test organisms, the optical density (OD) of overnight cultures were measured and the organisms were diluted to an initial OD of 0.05 in soft nutrient agar (0.4% w/v) at 50° C. Next, 3 mL of soft agar containing a test organism was overlaid on a solid 1.5% w/v nutrient agar plate (LB). A total of 50 μg of each peptide was spotted on the inoculated surface and plates were incubated for 16 to 48 h before being examined for zones of inhibition.
SspA protease treatment. SspA protease was resuspended at 2 mg/mL in 100 mM HEPES, pH 7.8. Proteolysis was achieved by incubation of 50 μg PSMs at 37° C. for ˜5 hours with 0.2 mg/mL SspA. The antimicrobial activity of the proteolytic products were assayed by spotting a 5 μL (˜45 μg) from each treated peptide on each test microorganism as described above.

M. luteus ATCC 4698 = test: MIC, broth dilution; format: cell-based, Micrococcus luteus; conditions: Table 4; liquid broth
Protocol: MIC determination. MICs were measured using peptides with 95% purity. For bacterial studies, cation-adjusted Mueller Hinton (MH) broth was used as the growth medium whereas Yeast Peptone Dextrose (YPD; 10 g/L yeast extract, 20 g/L peptone, 20 g/L dextrose) was used for Candida spp. and other yeast. Microorganisms were diluted to an optical density of […] in MH or YPD broth and a 180 μl volume was mixed with 20 μl of peptide arrayed as a 2-fold dilution series in a flat-bottom 96-well microtitre plate. A control was performed using 20 μl of sterile water. Plates were incubated as standing cultures overnight at 37° C.
Determination of minimum inhibitory concentrations. The MICs were measured for bioactive peptides identified from the initial screen. For bacterial studies, cation-adjusted Mueller Hinton (MH) broth was used as the growth medium whereas YPD was used for C. albicans. Bacterial cultures were diluted to a OD value of 6×10^−4 in MH broth and a 180 μl volume was mixed with 20 μl of peptide arrayed as 2-fold dilution series in a 96-well plate. For the positive control, 20 μl of sterile water was used. Plates were incubated as standing cultures overnight at 37° C. The lowest peptide concentration that resulted no observed microbial growth after an overnight treatment was defined as the MIC.

[3] = test system: Mannheimia haemolytica ATCC 33393; test: MIC, broth dilution; format: cell-based; conditions: Table 10; liquid broth
Summary of the method: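 Peptides (95% purity) in 2-fold dilution series were mixed with M. haemolytica diluted to OD 6×10^−4 in cation-adjusted Mueller Hinton broth and incubated standing overnight at 37 °C. MIC was the lowest concentration with no visible growth.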

In the case of “TVGGLVKWILDAVKKFA [T12A, TVGGLVKWILDAVKKFA]”, the “MIC (μg/mL) S. aureus” value (S. aureus ATCC 29213 [1]) is reported as 100 µg/mL, the “inhibition of S. aureus, spot-on-lawn” value (S. aureus ATCC 29213 [2]) is reported as “observed to inhibit S. aureus” and the “MIC (μg/mL) M. luteus” value (M. luteus ATCC 4698) is reported as 12.5 µg/mL. For the same sequence, the “MIC (μg/mL) M. haemolytica” value [3] was 50 µg/mL.

Reference: patent publication US12370235B2, “Synthetic, non-natural antimicrobial peptides inspired by Staphylococcus auricularis delta toxin” (University of Saskatchewan, priority 2021, dated 2025)
